Measured values: patent publication US20220265845A1, “AMINOTHIOLESTER COMPOUNDS AND USES THEREOF” (ADVANCED BIODESIGN, priority 2019, published 2022)

What was measured:
Type in all cases: biochemical
Human recombinant ALDH2 [1] = biological target: T1, Human recombinant ALDH2 (Homo sapiens, UniProt P05091); experiment: Enzymatic assay with human recombinant ALDH (NADH fluorescence), IC50; conditions: substrate Hexanal, NAD+, 37° C.
T1 construct: purchased Creative BioMart, NY, USA
T1 sequence (P05091 18-517): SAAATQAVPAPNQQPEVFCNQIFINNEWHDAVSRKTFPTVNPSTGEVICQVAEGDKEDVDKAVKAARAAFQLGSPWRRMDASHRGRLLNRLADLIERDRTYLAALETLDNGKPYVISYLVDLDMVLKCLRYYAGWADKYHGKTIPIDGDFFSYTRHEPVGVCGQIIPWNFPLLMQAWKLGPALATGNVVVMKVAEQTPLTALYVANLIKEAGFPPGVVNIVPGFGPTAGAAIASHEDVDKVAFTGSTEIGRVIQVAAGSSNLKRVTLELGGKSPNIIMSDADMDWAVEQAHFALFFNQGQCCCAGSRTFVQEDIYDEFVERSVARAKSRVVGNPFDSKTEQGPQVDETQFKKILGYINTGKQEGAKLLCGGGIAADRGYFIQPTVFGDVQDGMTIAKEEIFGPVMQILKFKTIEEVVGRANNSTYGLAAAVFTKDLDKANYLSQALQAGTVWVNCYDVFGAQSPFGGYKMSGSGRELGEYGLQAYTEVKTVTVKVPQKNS
Experimental: (§1) Human recombinant ALDH1A1, ALDH1 A2, ALDH1A3, ALDH2 (Creative BioMart, NY, USA) were prepared at 1 mg/mL. The enzymatic reactions were performed using saturating concentrations of substrate. To test the enzymatic activity of the enzymes, 10 μL of enzyme was added into a reaction buffer containing 50 mM HEPES pH 7.2, 30 mM MgCl2, plus 20 mM NAD^+ cofactor and 2 mM Hexanal (Sigma-Aldrich, St. Louis, Mo., USA) in the presence or absence of the different tested compounds. Internal standards were prepared with Nicotinamide adenine dinucleotide reduce form (NADH, 500 μM, Sigma-Aldrich) in Reaction Buffer (50 mM HEPES pH 7.2, 30 mM MgCl2).
(§2) Time-dependent inhibition assays were performed for 0-2-5-10-15-20-30-45-60 min at 37° C. in 1 mL-quartz cuvette. The formation of NADH was monitored, reading samples at excitation wavelength=340 nm/emission wavelength=460 nm (fluorescence) for at least 600 sec using Cary Eclipse Varian fluorimeter.
(§3) Negative control consisted in the same reactions except that enzyme was not added (enzyme blank). To determine the slope for enzyme blank and calculate product concentration (Unit of fluorescence) the following formulae was used: […]
(§4) where Cst is the standard NADH concentration, Fst is the standard fluorescence and dF/dt is the slope of the time dependent fluorescence (S. Sotobodowska et al, 2012). The specific activity of the enzymes (μmol/min·mg-U/mg) in the absence of presence of inhibitors was calculated as follows: […]

[2] = biological target: T2, Human recombinant ALDH1A2 (Homo sapiens, UniProt O94788); experiment: as above; conditions: substrate Hexanal, NAD+, 37° C.
T2 construct: purchased Creative BioMart, NY, USA
T2 sequence (O94788 1-518): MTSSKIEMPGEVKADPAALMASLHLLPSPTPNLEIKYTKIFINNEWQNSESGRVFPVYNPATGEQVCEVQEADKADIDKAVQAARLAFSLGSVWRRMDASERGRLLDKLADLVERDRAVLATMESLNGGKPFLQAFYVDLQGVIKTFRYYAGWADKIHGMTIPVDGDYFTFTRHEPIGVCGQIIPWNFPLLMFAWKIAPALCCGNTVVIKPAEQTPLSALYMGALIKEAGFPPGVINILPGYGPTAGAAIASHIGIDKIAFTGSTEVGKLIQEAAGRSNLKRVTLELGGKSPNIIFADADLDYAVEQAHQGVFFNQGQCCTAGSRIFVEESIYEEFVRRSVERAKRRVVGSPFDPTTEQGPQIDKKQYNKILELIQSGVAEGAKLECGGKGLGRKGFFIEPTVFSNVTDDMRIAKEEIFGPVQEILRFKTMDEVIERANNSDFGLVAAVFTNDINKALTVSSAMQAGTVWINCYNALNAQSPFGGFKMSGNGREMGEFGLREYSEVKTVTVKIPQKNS
Experimental: as §1, §2, §3, §4

[3] = biological target: T3, Human recombinant ALDH1A1 (Homo sapiens, UniProt P00352); experiment: as above; conditions: substrate Hexanal, NAD+, 37° C.
T3 construct: purchased Creative BioMart, NY, USA
T3 sequence (P00352 1-501): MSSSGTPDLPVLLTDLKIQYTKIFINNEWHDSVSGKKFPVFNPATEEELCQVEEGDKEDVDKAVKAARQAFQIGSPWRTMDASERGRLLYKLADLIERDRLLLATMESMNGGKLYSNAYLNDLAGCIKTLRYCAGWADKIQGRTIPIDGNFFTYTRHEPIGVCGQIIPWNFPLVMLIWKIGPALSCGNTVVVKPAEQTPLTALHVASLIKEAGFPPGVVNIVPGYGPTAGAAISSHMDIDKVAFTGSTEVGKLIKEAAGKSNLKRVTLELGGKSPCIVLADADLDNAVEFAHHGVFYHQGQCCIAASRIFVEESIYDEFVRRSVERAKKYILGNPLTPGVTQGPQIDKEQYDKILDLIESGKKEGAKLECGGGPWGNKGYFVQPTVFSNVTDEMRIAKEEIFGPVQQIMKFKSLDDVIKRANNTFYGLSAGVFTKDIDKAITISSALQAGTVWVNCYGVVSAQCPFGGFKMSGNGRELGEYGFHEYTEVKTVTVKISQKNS
Experimental: as §1, §2, §3, §4

Human recombinant ALDH2 [4] = biological target: T1, Human recombinant ALDH2; experiment: Kinetic parameters and inhibition type from Kobs versus inhibitor concentration plots; conditions: from Kobs versus [I] plots
Experimental: (§5) The kinetic data are expressed as the mean±standard error from three independent determination. Kinact/Ki was determined from Kobs versus concentration of the inhibitor [I] plots. […] The Kobs were obtained from negative exponential fit using non-linear regression program GraFit 5.0 (Erithacus software).
(§6) To determine the inhibition mechanisms of the tested compounds for each isoenzyme, the corresponding Kobs were calculated as mentioned above, plotting product concentration vs time incubation of the enzymes with the test compounds at 300 μM, 200 μM, 100 μM, 50 μM, 20 μM and 10 μM. The kobs were obtained for each concentration of inhibitor tested, from the negative exponential fit using non-linear regression program GraFit 5.0 (Erithacus software). Finally, the kinetic parameter of kinact/KI was determined from the plot of kobs versus the corresponding concentration of inhibitor. The slope of the linear fit of data indicated the rate constant in μM^−1·min^−1.

[5] = biological target: T2, Human recombinant ALDH1A2; experiment: as above; conditions: from Kobs versus [I] plots
Experimental: as §5, §6

IC50 (Human recombinant ALDH2 [1]) [µM]	IC50 [2] [µM]	IC50 [3] [µM]	kinact/KI (Human recombinant ALDH2 [4]) [M⁻¹ s⁻¹]	kinact/KI [5] [M⁻¹ s⁻¹]	SMILES
3.1 ± 0.8	0.568 ± 0.09	3.8 ± 1.1	9	1670	CSC(=O)C#CC(C)(C)N(C)CCOCc1ccccc1 [Example 3, S-methyl 4-[2-benzyloxyethyl(methyl)amino]-4-methyl-pent-2-ynethioate]
72 ± 9	18 ± 4	37 ± 5	7.08	85	CSC(=O)C#CC(C)(C)N(C)C [DIMATE, S-methyl 4-(dimethylamino)-4-methylpent-2-ynethioate, reference compound]
12 ± 3	1.3 ± 0.2	4.3 ± 0.4	40.8	352	CSC(=O)C#CC(C)(C)N(C)CCOCc1ccc(C)c(C)c1 [Example 5, S-methyl 4-[2-[(3,4-dimethylphenyl)methoxy]ethyl-methyl-amino]-4-methyl-pent-2-ynethioate]
